{
  "source": "patent US20230391778A1",
  "about": "“INDOLIN-2-ONE OR PYRROLO -PYRIDIN -2 -ONE DERIVATIVES” (Hoffmann-La Roche Inc., priority 2014, published 2023)",
  "target": "T1, mouse ENT-1 transporter (Mus musculus, UniProt Q9JIM1)",
  "T1 construct": "expressed in transfected cells",
  "T1 sequence (Q9JIM1 1-460)": "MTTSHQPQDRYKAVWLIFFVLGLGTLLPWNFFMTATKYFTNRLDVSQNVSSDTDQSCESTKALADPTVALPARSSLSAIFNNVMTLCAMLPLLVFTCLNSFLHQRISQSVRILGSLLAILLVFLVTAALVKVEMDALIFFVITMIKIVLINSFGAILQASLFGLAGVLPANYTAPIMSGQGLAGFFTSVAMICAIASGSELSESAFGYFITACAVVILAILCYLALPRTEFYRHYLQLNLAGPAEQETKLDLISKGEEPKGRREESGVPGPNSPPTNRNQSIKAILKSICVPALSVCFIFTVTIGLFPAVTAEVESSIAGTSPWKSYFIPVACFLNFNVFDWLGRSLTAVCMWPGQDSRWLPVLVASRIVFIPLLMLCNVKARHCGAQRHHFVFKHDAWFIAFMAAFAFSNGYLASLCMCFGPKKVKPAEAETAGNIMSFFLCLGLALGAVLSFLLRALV",
  "assay": "Measure of adenosine transport activity (ENT1 adenosine uptake inhibition)",
  "format": "cell-based",
  "conditions": "stable cells expressing mouse ENT-1, [2,8-3H]-adenosine 6 nM, 20 min",
  "description": "To measure adenosine transport activity of ENT-1 mammalian cells, stable cells expressing the mouse ENT-1 transporter were plated on day 1 in 96-well culture plates at the density of 60,000 cells/well, in complete DMEM/F12 medium supplemented with glutamax, 10% FBS and 10 μg/ml puromycin. On day 2, the medium was aspirated and the cells were washed twice with uptake buffer (10 mM Hepes-Tris, pH 7.4 containing 150 mM NaCl, 1 mM CaCl2), 2.5 mM KCl, 2.5 mM MgSO4, 10 mM D-glucose) (UB). For inhibition experiments, cells were then incubated at RT with various concentrations of compounds with 1% DMSO final. Non-specific uptake was defined in the presence of 10 μM S-(4-Nitrobenzyl)-6-thioinosine (NBTI, Sigma Cat #N2255).\nThe plates were then incubated for 20 min with gentle shaking and the reaction was stopped by aspiration of the mixture and washing (three times) with ice-cold UB. The cells were lysed by the addition of scintillation liquid, shaken 3 hours and the radioactivity in the cells was estimated using a microplates scintillation counter (TopCount NXT, Packard).",
  "note": "pIC50: −log10 of the molar value.",
  "data": [
    {"molecule": "Cc1ncc(-c2ccc3c(c2)N(c2cc(Cl)nc(C)n2)C(=O)C3(C)C)cn1", "note": "[Example 121, 1-(6-chloro-2-methylpyrimidin-4-yl)-3,3-dimethyl-6-(2-methylpyrimidin-5-yl)indolin-2-one]", "values": [
      {"measurement": "pIC50", "result": 6.17}
    ]},
    {"molecule": "Cc1ncc(-c2ccc3c(c2)N(c2cc(C4CC4)cnn2)C(=O)C3(C)C)cn1", "note": "[Example 130, 1-(5-cyclopropylpyridazin-3-yl)-3,3-dimethyl-6-(2-methylpyrimidin-5-yl)indolin-2-one]", "values": [
      {"measurement": "pIC50", "result": 5.63}
    ]},
    {"molecule": "Cc1cc(N2C(=O)C(C)(C)c3ccc(-n4cnc(C5CC5)c4)cc32)ccn1", "note": "[Example 21, 6-(4-Cyclopropylimidazol-1-yl)-3,3-dimethyl-1-(2-methyl-4-pyridyl)indolin-2-one]", "values": [
      {"measurement": "pIC50", "result": 5.40}
    ]},
    {"molecule": "Cc1ncc(-c2ccc3c(c2)N(c2cc(C)c(C)cn2)C(=O)C3(C)C)cn1", "note": "[Example 69, 1-(4,5-Dimethylpyridin-2-yl)-3,3-dimethyl-6-(2-methylpyrimidin-5-yl)indolin-2-one]", "values": [
      {"measurement": "pIC50", "result": 5.89}
    ]},
    {"molecule": "Cc1ncc(-c2ccc3c(c2)N(c2ccc(C)[n+]([O-])n2)C(=O)C3(C)C)c[n+]1[O-]", "note": "[Example 107, 3-(3,3-dimethyl-6-(2-methyl-1-oxidopyrimidin-5-yl)-2-oxoindolin-1-yl)-6-methylpyridazine 1-oxide]", "values": [
      {"measurement": "pIC50", "result": 5.66}
    ]},
    {"molecule": "Cc1ncc(-c2ccc3c(c2)N(c2ccc(C#N)nc2)C(=O)C3(C)C)cn1", "note": "[Example 30, 5-(3,3-Dimethyl-6-(2-methylpyrimidin-5-yl)-2-oxoindolin-1-yl)picolinonitrile]", "values": [
      {"measurement": "pIC50", "result": 5.67}
    ]},
    {"molecule": "Cc1ncc(-c2ccc3c(c2)N(c2cnc(C)c(C)c2)C(=O)C3(C)C)cn1", "note": "[Example 75, 1-(5,6-dimethylpyridin-3-yl)-3,3-dimethyl-6-(2-methylpyrimidin-5-yl)indolin-2-one]", "values": [
      {"measurement": "pIC50", "result": 6.08}
    ]},
    {"molecule": "Cc1ncc(-c2ccc3c(c2)N(c2ccc(C4CC4)nc2)C(=O)C3(C)C)cn1", "note": "[Example 32, 1-(6-Cyclopropylpyridin-3-yl)-3,3-dimethyl-6-(2-methylpyrimidin-5-yl)indolin-2-one]", "values": [
      {"measurement": "pIC50", "result": 7.23}
    ]},
    {"molecule": "Cc1ccc(-c2ccc3c(c2)N(c2cn(C)cn2)C(=O)C3(C)C)cn1", "note": "[Example 10, 3,3-Dimethyl-1-(1-methyl-1H-imidazol-4-yl)-6-(6-methylpyridin-3-yl)indolin-2-one]", "values": [
      {"measurement": "pIC50", "result": 5.23}
    ]},
    {"molecule": "Cc1ccc(-c2ccc3c(c2)N(c2ccn(C)n2)C(=O)C3(C)C)cn1", "note": "[Example 13, 3,3-Dimethyl-1-(1-methyl-1H-pyrazol-3-yl)-6-(6-methylpyridin-3-yl)indolin-2-one]", "values": [
      {"measurement": "pIC50", "result": 5.94}
    ]},
    {"molecule": "Cc1ncc(-c2ccc3c(c2)N(c2cc(C)n(C)n2)C(=O)C3(C)C)cn1", "note": "[Example 5, 1-(1,5-Dimethyl-1H-pyrazol-3-yl)-3,3-dimethyl-6-(2-methylpyrimidin-5-yl)indolin-2-one]", "values": [
      {"measurement": "pIC50", "result": 5.98}
    ]},
    {"molecule": "Cc1cnc(-c2ccc3c(c2)N(c2ccn(C)n2)C(=O)C3(C)C)cn1", "note": "[Example 138, 3,3-dimethyl-1-(1-methyl-1H-pyrazol-3-yl)-6-(5-methylpyrazin-2-yl)indolin-2-one]", "values": [
      {"measurement": "pIC50", "result": 5.24}
    ]},
    {"molecule": "Cc1cncc(-c2ccc3c(c2)N(c2cncc(C)n2)C(=O)C3(C)C)c1", "note": "[Example 145, 3,3-dimethyl-1-(6-methylpyrazin-2-yl)-6-(5-methyl-3-pyridyl)indolin-2-one]", "values": [
      {"measurement": "pIC50", "result": 6.47}
    ]},
    {"molecule": "Cc1ncc(-c2ccc3c(c2)N(c2cn(C)nn2)C(=O)C3(C)C)cn1", "note": "[Example 87, 3,3-dimethyl-1-(1-methyl-1H-1,2,3-triazol-4-yl)-6-(2-methylpyrimidin-5-yl)indolin-2-one]", "values": [
      {"measurement": "pIC50", "result": 5.68}
    ]},
    {"molecule": "Cc1ncc(-c2ccc3c(c2)N(c2cnc(CF)nc2)C(=O)C3(C)C)cn1", "note": "[Example 108, 1-(2-(fluoromethyl)pyrimidin-5-yl)-3,3-dimethyl-6-(2-methylpyrimidin-5-yl)indolin-2-one]", "values": [
      {"measurement": "pIC50", "result": 5.72}
    ]},
    {"molecule": "Cc1cnc(-c2ccc3c(c2)N(c2ccc(C)nn2)C(=O)C3(C)C)cn1", "note": "[Example 137, 3,3-dimethyl-6-(5-methylpyrazin-2-yl)-1-(6-methylpyridazin-3-yl)indolin-2-one]", "values": [
      {"measurement": "pIC50", "result": 5.39}
    ]},
    {"molecule": "Cc1ncc(-c2ccc3c(c2)N(c2nnn(C)n2)C(=O)C3(C)C)cn1", "note": "[Example 105, 3,3-dimethyl-1-(2-methyl-2H-tetrazol-5-yl)-6-(2-methylpyrimidin-5-yl)indolin-2-one]", "values": [
      {"measurement": "pIC50", "result": 5.16}
    ]},
    {"molecule": "Cc1cccc(N2C(=O)C(C)(C)c3ccc(-c4cnc(C)nc4)cc32)n1", "note": "[Example 61, 3,3-Dimethyl-1-(6-methylpyridin-2-yl)-6-(2-methylpyrimidin-5-yl)indolin-2-one]", "values": [
      {"measurement": "pIC50", "result": 6.02}
    ]},
    {"molecule": "Cc1cc(-c2ccc3c(c2)N(c2cn(C)cn2)C(=O)C3(C)C)ccn1", "note": "[Example 11, 3,3-Dimethyl-1-(1-methyl-1H-imidazol-4-yl)-6-(2-methylpyridin-4-yl)indolin-2-one]", "values": [
      {"measurement": "pIC50", "result": 5.15}
    ]},
    {"molecule": "Cc1cc(N2C(=O)C(C)(C)c3ccc(-c4cnc(C)nc4)cc32)cc(C)n1", "note": "[Example 66, 1-(2,6-Dimethylpyridin-4-yl)-3,3-dimethyl-6-(2-methylpyrimidin-5-yl)indolin-2-one]", "values": [
      {"measurement": "pIC50", "result": 5.94}
    ]},
    {"molecule": "Cc1ncc(-c2ccc3c(c2)N(c2ccncc2F)C(=O)C3(C)C)cn1", "note": "[Example 46, 1-(3-Fluoropyridin-4-yl)-3,3-dimethyl-6-(2-methylpyrimidin-5-yl)indolin-2-one]", "values": [
      {"measurement": "pIC50", "result": 5.45}
    ]},
    {"molecule": "Cc1cnnc(N2C(=O)C(C)(C)c3ccc(-c4cnc(C)nc4)cc32)c1", "note": "[Example 122, 3,3-dimethyl-1-(5-methylpyridazin-3-yl)-6-(2-methylpyrimidin-5-yl)indolin-2-one]", "values": [
      {"measurement": "pIC50", "result": 6.20}
    ]},
    {"molecule": "Cc1ccc(N2C(=O)C(C)(C)c3ccc(-c4cnc(C)nc4)cc32)cn1", "note": "[Example 12, 3,3-Dimethyl-1-(6-methylpyridin-3-yl)-6-(2-methylpyrimidin-5-yl)indolin-2-one]", "values": [
      {"measurement": "pIC50", "result": 6.83}
    ]},
    {"molecule": "Cc1ccc(-c2ccc3c(c2)N(c2ccnc(C)c2)C(=O)C3(C)C)cn1", "note": "[Example 19, 3,3-Dimethyl-6-(6-methylpyridin-3-yl)-1-(2-methylpyridin-4-yl)indolin-2-one]", "values": [
      {"measurement": "pIC50", "result": 5.46}
    ]},
    {"molecule": "Cc1ncc(-c2ccc3c(c2)N(c2cn[nH]c2)C(=O)C3(C)C)cn1", "note": "[Example 83, 3,3-dimethyl-6-(2-methylpyrimidin-5-yl)-1-(1H-pyrazol-4-yl)indolin-2-one]", "values": [
      {"measurement": "pIC50", "result": 5.33}
    ]},
    {"molecule": "Cc1ncc(-c2ccc3c(c2)N(c2nccc(Cl)n2)C(=O)C3(C)C)cn1", "note": "[Example 128, 1-(4-chloropyrimidin-2-yl)-3,3-dimethyl-6-(2-methylpyrimidin-5-yl)indolin-2-one]", "values": [
      {"measurement": "pIC50", "result": 6.07}
    ]},
    {"molecule": "Cc1cncc(N2C(=O)C(C)(C)c3ccc(-c4cnc(C)nc4)cc32)c1", "note": "[Example 59, 3,3-Dimethyl-1-(5-methylpyridin-3-yl)-6-(2-methylpyrimidin-5-yl)indolin-2-one]", "values": [
      {"measurement": "pIC50", "result": 6.18}
    ]},
    {"molecule": "Cc1ncc(-c2ccc3c(c2)N(c2cnn(C)c2)C(=O)C3(C)C)cn1", "note": "[Example 80, 3,3-dimethyl-1-(1-methyl-1H-pyrazol-4-yl)-6-(2-methylpyrimidin-5-yl)indolin-2-one]", "values": [
      {"measurement": "pIC50", "result": 5.82}
    ]},
    {"molecule": "Cc1cc(N2C(=O)C(C)(C)c3ccc(-c4cnc(C)nc4)cc32)ncn1", "note": "[Example 7, 3,3-Dimethyl-1-(6-methylpyrimidin-4-yl)-6-(2-methylpyrimidin-5-yl)indolin-2-one]", "values": [
      {"measurement": "pIC50", "result": 5.81}
    ]},
    {"molecule": "Cc1cc(-c2ccc3c(c2)N(c2ccnc(C)c2)C(=O)C3(C)C)ccn1", "note": "[Example 20, 3,3-Dimethyl-1,6-bis(2-methylpyridin-4-yl)indolin-2-one]", "values": [
      {"measurement": "pIC50", "result": 5.25}
    ]}
  ]
}
